We go through 10 compounds from patent US20060024844A1, “Method for the idenification of ligands” (priority 2002, published 2006).

Common to all, as to format: binding
Data set [1] deals with T1, ER-α (Homo sapiens, UniProt P03372).
T1 sequence (P03372 1-595): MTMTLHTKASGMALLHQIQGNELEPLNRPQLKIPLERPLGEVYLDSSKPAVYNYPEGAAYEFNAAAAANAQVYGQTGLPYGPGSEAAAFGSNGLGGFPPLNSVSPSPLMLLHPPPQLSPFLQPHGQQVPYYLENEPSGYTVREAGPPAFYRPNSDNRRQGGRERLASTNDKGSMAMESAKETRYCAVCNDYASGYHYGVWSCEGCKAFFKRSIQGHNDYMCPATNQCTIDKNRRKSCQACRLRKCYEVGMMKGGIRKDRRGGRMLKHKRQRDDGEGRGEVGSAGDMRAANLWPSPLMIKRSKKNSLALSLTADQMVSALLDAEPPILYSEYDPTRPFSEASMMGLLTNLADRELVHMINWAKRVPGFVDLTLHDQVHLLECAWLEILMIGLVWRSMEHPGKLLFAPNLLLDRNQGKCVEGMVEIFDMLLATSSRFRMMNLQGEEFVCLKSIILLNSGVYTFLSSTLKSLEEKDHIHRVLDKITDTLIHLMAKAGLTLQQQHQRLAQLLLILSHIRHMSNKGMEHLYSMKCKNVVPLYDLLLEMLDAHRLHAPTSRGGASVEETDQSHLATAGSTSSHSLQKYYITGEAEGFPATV
The data set is described as follows: Microplate thermal shift assay (Thermofluor) of ER-α against a panel of steroid ligands. The method, then: The concentration of ER-α in all of the experiments was 8 μM and the ligand concentration was 20 μM.
A 2 μL ligand solution at 2 times the final concentration was dispensed with a micropipette into a 384 well black wall Greiner plate. Then, 2 μL of the protein dye solution was dispensed on top of the ligand solution in the 384 well plate. The plates were spun to ensure mixing of the protein-dye and ligand solutions followed by layering of […], of silicone oil to prevent evaporation during heating of the samples.

In the next data set the target is ER-β (Homo sapiens, UniProt Q92731). The data set is described as follows: Microplate thermal shift assay (Thermofluor) of ER-β with ligands and co-regulators. The following applies: for Change in Tm stabilization from the receptor-ligand ΔTm in the presence of SRC-1 NR2 / Change in Tm stabilization from the receptor-ligand ΔTm in the presence of SRC-3 NR2 / Change in Tm stabilization from the receptor-ligand ΔTm in the presence of SRC-3 / Change in Tm stabilization from the receptor-ligand ΔTm in the presence of NCoR1 / Observed ΔTm stabilization, ligand alone / ΔTm at 11 µM: ER-β 8 μM, ligand 20 μM; for Change in Tm stabilization from the receptor-ligand ΔTm in the presence of SRC-1 NR2: co-activator peptide SRC1—NR2; for Change in Tm stabilization from the receptor-ligand ΔTm in the presence of SRC-3 NR2: co-activator peptide SRC3—NR2; for Change in Tm stabilization from the receptor-ligand ΔTm in the presence of SRC-3 / ΔTm at 11 µM: co-activator protein SRC-3 11 μM; for Change in Tm stabilization from the receptor-ligand ΔTm in the presence of NCoR1: co-repressor peptide NCoR-1; for Observed ΔTm stabilization, ligand alone: no co-regulator, average of four experiments; for ΔTm at 11 µM: read-out: Change in Tm stabilization from the receptor-ligand ΔTm in the presence of SRC-3.
ER-β, sequence (Q92731 whole entry, species assumed): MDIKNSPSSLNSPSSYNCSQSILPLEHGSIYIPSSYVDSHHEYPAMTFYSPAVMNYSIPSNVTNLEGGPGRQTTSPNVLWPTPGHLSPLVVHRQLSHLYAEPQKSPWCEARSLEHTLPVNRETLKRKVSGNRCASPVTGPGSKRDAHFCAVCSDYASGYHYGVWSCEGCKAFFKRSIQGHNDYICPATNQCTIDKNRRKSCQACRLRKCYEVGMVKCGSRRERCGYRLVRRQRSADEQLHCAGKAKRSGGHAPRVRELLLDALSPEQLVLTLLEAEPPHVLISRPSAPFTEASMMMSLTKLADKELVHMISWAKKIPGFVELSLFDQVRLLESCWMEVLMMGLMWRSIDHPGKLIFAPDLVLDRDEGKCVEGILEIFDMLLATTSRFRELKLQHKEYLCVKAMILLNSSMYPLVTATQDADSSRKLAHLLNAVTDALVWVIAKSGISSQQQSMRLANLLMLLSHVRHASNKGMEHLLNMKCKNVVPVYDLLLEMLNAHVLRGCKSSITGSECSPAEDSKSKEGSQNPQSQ

For data set [2], the target named is T1, ER-α. The data set is described as follows: Microplate thermal shift assay (Thermofluor) of ER-α with ligands and co-regulators.
Procedure: (§1) A 2 μL ligand solution at 2 times the final concentration was dispensed with a micropipette into a 384 well black wall Greiner plate. Then, 2 μL of the protein dye solution was dispensed on top of the ligand solution in the 384 well plate. The plates were spun to ensure mixing of the protein-dye and ligand solutions followed by layering of 1 μL of silicone oil to prevent evaporation during heating of the samples.
Setting [3] is: ER-α 8 μM, ligand 20 μM, average of four experiments, in °C (unit assumed).
The mark [4] stands for this setting: ER-α 8 μM, ligand 20 μM, average of four experiments.

Read-outs that look alike come from different tables or passages of the source.

Procedure for ER-β: as §1

For 4-hydroxytamoxifen [4-OH-tamoxifen], the “Ligand function for ER-α (agonist or antagonist)” value on ER-α [1] is reported as “antagonist”. In addition, the ΔTm on ER-α [1] (in °C (unit assumed)) turned out to be 19.99.
“17-α-ethyleneestradiol [17-α-ethylen-E2]”: at ER-β, the “Change in Tm stabilization from the receptor-ligand ΔTm in the presence of SRC-1 NR2” value amounted to 2.6, the “Change in Tm stabilization from the receptor-ligand ΔTm in the presence of SRC-3 NR2” value came out at 2.6, the “Change in Tm stabilization from the receptor-ligand ΔTm in the presence of SRC-3” value stood at 1.6 and the “Change in Tm stabilization from the receptor-ligand ΔTm in the presence of NCoR1” value was −0.1. For the same compound, on ER-β, the “Observed ΔTm stabilization, ligand alone” value turned out to be 15.0.
Regarding `COc1cc2c(cc1O)CC[C@@H]1[C@@H]2CC[C@]2(C)[C@@H](O)CC[C@@H]12` [2-methoxy-E2, 2-methoxyestradiol], on ER-β, the “Change in Tm stabilization from the receptor-ligand ΔTm in the presence of SRC-1 NR2” value is recorded as 4.4, the “Change in Tm stabilization from the receptor-ligand ΔTm in the presence of SRC-3 NR2” value was 4.4, the “Change in Tm stabilization from the receptor-ligand ΔTm in the presence of SRC-3” value turned out to be 2.2 and the “Change in Tm stabilization from the receptor-ligand ΔTm in the presence of NCoR1” value is on record as −0.7. For the same compound, at ER-β, the “Observed ΔTm stabilization, ligand alone” value is 1.5. In addition, on ER-α [1] (setting [3]), the ΔTm is 5.98. On ER-α [1] (interpretation if ligands had been screened against co-regulators as in Example 1), the “Ligand function for ER-α (agonist or antagonist)” value was “agonists”. For the same compound, the “Change in Tm stabilization from the receptor-ligand ΔTm in the presence of NCoR1” value on ER-α [2] (ER-α 8 μM, ligand 20 μM, co-repressor peptide NCoR-1) is on record as −0.3. Further, the “Observed ΔTm stabilization, ligand alone” value on ER-α [2] (ER-α 8 μM, ligand 20 μM, no co-regulator, average of four experiments) came to 1.8.
For the compound `C[C@@]12CCC[C@H]1[C@@H]1CCC3=CCCC[C@]3(C)[C@H]1CC2` [4-androstene], the ΔTm at ER-α [1] (setting [4]) is −0.23.
For `C[C@]12CC[C@@H]3c4ccc(O)cc4CC[C@H]3[C@@H]1CC[C@@H]2O` [Estradiol, β-estradiol], the ΔTm at 11 µM at ER-β stood at 1.1 °C.
For the compound `C[C@]12CC[C@@H]3c4ccc(O)cc4C[C@@H](CCCCCCCCC[S+]([O-])CCCC(F)(F)C(F)(F)F)[C@H]3[C@@H]1CC[C@@H]2O` (stereo partly shown) [ICI-182780], the ΔTm at 11 µM at ER-β worked out at 0.6 °C; on ER-α [2] (ER-α 8 μM, ligand 20 μM, co-activator protein SRC-3 11 μM, read-out: Change in Tm stabilization from the receptor-ligand ΔTm in the presence of SRC-3) it was 0 °C. Moreover, the “Observed ΔTm stabilization, ligand alone” value on ER-β stood at 13.6. The “Additional stabilization / ability to recruit co-activators in the presence of co-activator protein/peptide” value at ER-β (ER-β, result in words) was “no ability to recruit co-activators”; on ER-α [2] (ER-α, result in words), “no ability to recruit co-activators”.
As to `C[C@]12C[C@H](O)[C@H]3[C@@H](CCC4=CC(=O)CC[C@@]43C)[C@@H]1CC[C@@H]2C(=O)CO` [corticosterone], the ΔTm at ER-α [1] (setting [4]) is reported as −0.27.
On to `C[C@]12CCC(=O)C=C1CC[C@@H]1[C@@H]2C(=O)C[C@@]2(C)[C@H]1CC[C@]2(O)C(=O)CO` [cortisone], for which, on ER-α [1] (setting [3]), the ΔTm amounted to 0.01.
Regarding `CC(=O)[C@H]1CC[C@H]2[C@@H]3CCC4=CC(=O)CC[C@]4(C)[C@H]3CC[C@]12C` [progesterone], the ΔTm on ER-α [1] (setting [4]) is −0.19.
Take SRC-3: co-activator protein SRC-3: the Observed ΔTm stabilization by co-regulator alone (no ligand) with ER-α [2] (ER-α 8 μM, no ligand, SRC-3 11 μM, peptides 100 XM) was found to be 0.5 °C. Further, the “Preferential recruitment of co-activator, ER-α vs. ER-β” value with ER-α [2] (in the presence of estrogen-like ligands, result in words) was “preferentially recruited”.
